From PubChem BioAssay (NCI)
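Tested at 5 concentrations; 48 h exposure; 96-well plates; endpoints linearly interpolated, else capped at highest concentration. TGI denotes the concentration required for complete inhibition of growth.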

Tests used:
Assay in all cases: inhibition of tumour cell growth, NCI panel, 48 h
786-0 renal = tested on: 786-0 renal
COLO 205 colon = tested on: COLO 205 colon
EKVX NSCLC = tested on: EKVX NSCLC
HCT-116 colon = tested on: HCT-116 colon
HL-60(TB) leukemia = tested on: HL-60(TB) leukemia
NCI-H226 lung = tested on: NCI-H226 lung
NCI/ADR-RES ovarian = tested on: NCI/ADR-RES ovarian
SF-268 CNS = tested on: SF-268 CNS
SK-MEL-28 melanoma = tested on: SK-MEL-28 melanoma
UO-31 renal = tested on: UO-31 renal

| Structure (SMILES) | TGI (786-0 renal) | TGI (COLO 205 colon) | TGI (EKVX NSCLC) | TGI (HCT-116 colon) | TGI (HL-60(TB) leukemia) | TGI (NCI-H226 lung) | TGI (NCI/ADR-RES ovarian) | TGI (SF-268 CNS) | TGI (SK-MEL-28 melanoma) | TGI (UO-31 renal) |
| --- | --- | --- | --- | --- | --- | --- | --- | --- | --- | --- |
| COc1ccc(C2CCc3c(cnc4nc(N)nc(N)c34)C2)cc1 (stereo unspecified) | 26.8 µM | > 100 µM | > 100 µM | > 100 µM | > 100 µM | > 100 µM | > 100 µM | > 100 µM | > 100 µM |  |
| CCOC(=O)N1c2c(c3ccccc3n2C(=O)OCC)C(=O)C(OC)N1C(=O)OCC (stereo unspecified) | > 100 µM | 28.9 µM | > 100 µM | 86.9 µM | 49.8 µM | > 100 µM | 62.1 µM |  | 53.6 µM | > 100 µM |
| CC1CN=C(N(C(=O)Nc2ccccc2)C2CCCCC2)S1 (stereo unspecified) | 31.4 µM | 37 µM | 35.4 µM | 33.1 µM | 35.6 µM |  | 33.3 µM | 46 µM | 28.2 µM | 32.3 µM |
| Clc1ccc(C2=NNC(c3cccc(Cl)c3)C2)cc1 (stereo unspecified) | 92.7 µM | 29.3 µM | > 100 µM | > 100 µM | > 100 µM | > 100 µM | 89.9 µM | > 100 µM |  | 21.4 µM |
| O=C(OCC(OC(=O)c1ccccc1)C1CC(C(O)C2CCCCC2)C(=O)O1)c1ccccc1 (stereo unspecified) | > 100 µM | > 100 µM | > 100 µM | > 100 µM | 37 µM | > 100 µM | > 100 µM | > 100 µM |  | > 100 µM |
| Cc1cnc2cc(Cl)ccc2c1SCC(=O)O | > 100 µM |  | > 100 µM | > 100 µM | > 100 µM | > 100 µM | > 100 µM | > 100 µM | > 100 µM | > 100 µM |
| CC1[C@@H]2C[C@@H]3O[C@@]34[C@H]3CCC5Cc6nc7c(nc6C[C@@]5(C)C3(O)CC(=O)[C@@]24CO[C@]12OC(C)(C)CC2O)CC1CC[C@@H]2C3=C[C@H]4O[C@@]5(O[C@@](C)(CO)C[C@@H]5O)C(C)[C@@]4(O)[C@]3(C)[C@@H](O)CC2[C@]1(C)C7 (stereo partly specified) |  | 0.156 µM | 1.03 µM | > 3.52 µM | 0.0305 µM | > 3.52 µM | > 3.52 µM | 0.683 µM |  | 0.755 µM |
| CN(C)CCSc1nccc(-c2ccc(-c3ccnc(SCCN(C)C)n3)s2)n1 |  | 21.7 µM | 37.4 µM | 13.1 µM | 6.01 µM | 27.7 µM | 19.9 µM | 22 µM | 36.2 µM | 16.6 µM |
| Cc1cc(S(=O)(=O)Nc2n[nH]c(N)n2)c(S)cc1Cl | > 10 µM | > 10 µM | > 10 µM | > 10 µM | > 10 µM | > 10 µM | > 10 µM | > 10 µM | > 10 µM |  |
| CCOC(=O)C1=C(C)N(c2ccc(Cl)cc2)C2(O)C=CC(=O)C3C(=O)N(c4ccccc4)C(=O)C132 (stereo unspecified) | 3.09 µM | 3.26 µM | 4.38 µM | 3.14 µM | 6.21 µM |  | 6.72 µM | 4.54 µM | 3.06 µM | 3.31 µM |
| NC(=O)c1nnc2c(F)cccc2c1N | > 100 µM | > 100 µM | > 100 µM | > 100 µM | > 100 µM | > 100 µM | > 100 µM | > 100 µM |  | > 100 µM |
| O=C1/C(=C/Cc2ccco2)N=C(c2ccccc2)N1c1nc2c(Cl)cc(Cl)cc2s1 | > 100 µM | > 100 µM | 76.2 µM | 81.2 µM | 49.9 µM |  | 84.5 µM | 89.2 µM | > 100 µM | 72.8 µM |
| Nc1nn2cc(-c3ccccc3)[n+](CC(=O)c3ccccc3)c2s1 | 40.2 µM | 29.3 µM | > 100 µM | 30.3 µM | > 100 µM | > 100 µM | > 100 µM | 50.6 µM |  | > 100 µM |
| N#CC(NNC(=O)c1c(Cl)c(Cl)c(Cl)c(Cl)c1-c1nc2ccc(C(=O)c3ccccc3)cc2[nH]1)c1cccc(Oc2ccccc2)c1 (stereo unspecified) | 51.4 µM | 46.1 µM | 37.6 µM | > 100 µM | 83.6 µM | 53.1 µM | 57.1 µM |  | 74.1 µM | > 100 µM |
| O=C1CSC2=NC3=C(COC/C3=C\c3ccc(F)cc3)C(c3ccc(F)cc3)N12 (stereo unspecified) | > 100 µM | > 100 µM | > 100 µM | > 100 µM | 34.5 µM | > 100 µM | > 100 µM | > 100 µM |  | > 100 µM |
| COc1ccc(C2=C(N)c3cc(OC)ccc3C2=O)cc1 | > 100 µM | > 100 µM | > 100 µM | > 100 µM | > 100 µM | > 100 µM | > 100 µM | > 100 µM | > 100 µM |  |
| CC1C/C(=C\c2ccc(O)c(O)c2)C(=O)/C(=C/c2ccc(O)c(O)c2)C1 (stereo unspecified) |  | 32.2 µM | 30.1 µM | 20 µM | 8.42 µM | 9.64 µM | 57.7 µM | 32.1 µM | 20.3 µM |  |
